The record followed here is patent US6372963B1, “Transformation method for plants” (Aventis CropScience N.V., priority 1998, dated 2002).

The structures appear in SMILES notation.

What all share (assay type): cell-based
In test [1] the test system is type I calli from the PHH corn line. The test can be described thus: Agrobacterium-mediated transformation of plant-phenolic pre-treated type I callus from corn. The conditions noted are these: for Approximate mean transformation frequency with pretreatment: 5 days on 100-200 μM acetosyringone; for PAT-positive plant lines: about 4000 pre-treated callus fragments. From the text: Type I callus fragments were obtained essentially as described in WO 92/09696. Immature embryos from corn line (Pa91xH99)xH99 (PHH-line) were excised from the kernel 9-12 days after pollination, surface sterilized and plated on Mahi1VII medium for the induction of type I callus. Type I callus was subcultured on the same medium with one month intervals for about two to six months. Next, type I callus was finely cut in fragments with an average length of about 1.5 mm, and the resulting fragments were incubated-for 5 days on LSIDhy1.5VII substrate supplemented with 100-200 μM acetosyringone. The pre-induced callus pieces were collected and without further wounding, immersed in a suspension of the appropriate Agrobacterium strain for about 3 to about 20 minutes. The bacterial suspension was obtained in the following way: bacteria were grown for 3 to 6 days on MAG medium [minimal A medium (Jeffrey Miller, 1972) supplemented with 2 g/L glucose] or AB medium (Chilton et al., 1974). The bacteria were harvested, and resuspended in liquid LSI substrate supplemented with 100-200 μM acetosyringone, at a concentration of about 5×10^9 cells/ml.
After immersion in the bacterial suspension, the callus fragments were co-cultivated on LSIIDhy1.5XI medium, supplemented with 100-200 μM acetosyringone, at about 25° C. for 3 to 6 days (3 days for LBA-type strain, 6 days for EHA-type strain).
After co-cultivation, the tissue was transferred to Ahx1.5VIIp500ino1000ppT10 and cultured for3 to 4 weeks. Proliferating, phosphinotricin (PPT)-resistant calli were excised and subcultured at least twice, with 3 week subculture intervals on Mh1VIIp500ppT5. Embryogenic PPT-resistant calli were plated on regeneration medium (A37VIIp500 ppT2.), and the embryogenic tissue was subcultured twice, with 10 to 14 day intervals, on the same medium. Small plants were transferred to glass containers containing A6%VIIp500ppT2 substrate for further growth, and developing shoots were then transferred to half-strength MS medium supplemented with 1.5% sucrose to allow further shoot elongation as well as rooting. Plants were tested for phosphinothricin acetyl transferase (PAT) activity, and PAT-positive plants were transferred to the greenhouse. PAT-positive plants were tested for the presence of the transgene by Southern hybridization.
Type I callus fragments were obtained as described in Example I and incubated for 5 days on LSIDhy1.5VII substrate supplemented with 100 μM of acetosyringone, followed by co-cultivation with Agrobacterium strain A3532 and A3638. For strain A3532 only I PAT-positive plant was obtained, even with acetosyringone pretreatment (transformation frequency<0.1%). However, the presence of the functional virB promoter preceding the virB11 open reading frame on the T-DNA vector, improved the transformation efficiency (see Table I) at least almost ten times.
Type I callus fragments were obtained as described in Example 1 and incubated for 5 days on LSIDhy1.5VII substrate supplemented with 100 μM of the plant phenolic compounds of Table II. Approximately 200 pre-induced callus fragments were co-cultivated with Agrobacterium strain A3637 (or A3638).
Type I callus fragments were obtained as described in Example 1 and incubated for 5 days on LSIDhy1.5VII substrate supplemented with either 200 μM of acetosyringone or a combination of 100 μM acetosyringone and 100 μM p-hydroxybenzoic acid. About 250 callus pieces were co-cultivated with Agrobacterium strain A3533. Whereas 2 shoot-regenerating lines (comprising 1 PAT-positive line) were obtained on PPT containing media after pre-induction on acetosyringone (frequency about 1%), 7 shoot regenerating lines (comprising 5 PAT-positive lines) were obtained on PPT containing media after pre-induction on acetosyringone plus p-hydroxybenzoic acid (frequency about 3%).

In test [2] the test system is type I calli obtained from corn plant line (Pa91xH99)xPa91 (PHP). Briefly: Agrobacterium co-cultivation of acetosyringone pre-treated type I calli, PHP line.
In a further test the test system is type I callus from corn. Briefly: Transformation by electroporation of acetosyringone pre-treated type I callus from corn. The settings on record: 5 days on 100 μM acetosyringone. The protocol:
Finely chopped pieces of calli, derived from type I callus and pre-incubated for 5 days on 100 μM acetosyringone-containing medium, as described in Example 1, were subjected without further wounding to electroporation as described in […]/09696. Briefly, about 50 callus pieces were resuspended in 100 μl EPM-KCl buffer and preplasmolyzed for 3 hr at room temperature. Next the callus pieces were washed in EPM+KCl buffer and transferred to an electrocuvette in EPM+KCl buffer. Plasmid DNA (10 μg of pDE110) was added, and the DNA was incubated with the callus fragments for about 1 hr at room temperature. Electroporation was carried out using standard conditions (1 pulse with initial field strength 375 V/cm from a 900 μF capacitor). The calli were never kept on ice. Phosphinotricin-resistant calli were selected and plants regenerated as described ([…]/09696). Phosphinotricin acetyl transferase activity was detected as described ([…]/09696).

In test [3] the test system is type I calli obtained from corn plant line Pa91. Briefly: Agrobacterium co-cultivation of acetosyringone pre-treated type I calli, Pa91 line.
Where [4] appears, read: 5 days on 100 μM compound, approximately 200 callus fragments, strain A3637 (or A3638).
The mark [5] stands for this setting: electroporation of about 530 callus pieces.
Where [6] appears, read: strain A3533, about 250 callus pieces, 200 μM acetosyringone or 100 μM acetosyringone + 100 μM p-hydroxybenzoic acid, 5 days.

Turning to `O=C(O)c1ccc(O)cc1O` [2,4-dihydroxybenzoic acid, 2,4 dihydroxybenzoic acid], in test [1] (setting [4]), the “Number of PAT-positive lines” value is on record as 1 and the Transformation frequency is 0.5%.

For `O=C(O)c1ccc(O)c(O)c1` [3,4-dihydroxybenzoic acid], in test [1] (setting [4]), the “Number of PAT-positive lines” value turned out to be 2 and the Transformation frequency was 1%.

On to `COc1cc(C(C)=O)cc(OC)c1O` [acetosyringone, 3,5-dimethoxy-4-hydroxyacetophenone], for which the “effect of pre-treatment on transformation frequency” value in test [2] and in test [3] was “Enhancement of transformation frequency” throughout. Moreover, the PAT-positive plants in the test on type I callus from corn (setting [5]) worked out at 4. Further, the Transformation frequency result in the test with type I callus from corn (setting [5]) is listed as “about 0.75%”; in test [1] (setting [4]), 1%; in test [1] (strain A3532, 5 days on 100 μM acetosyringone) it was less than 0.1%. Also, the “transformation frequency relative to callus not pre-treated” value in the test on type I callus from corn (electroporation) was “about three times higher”. Further, the “Number of PAT-positive lines” value in test [1] (setting [4]) is given as 2. Further, the “Approximate mean transformation frequency with pretreatment” value came out at 0.8% in test [1] (Agrobacterium strain A3533), 0.8% in test [1] (Agrobacterium strain A3637) and 0.9% in test [1] (Agrobacterium strain A3638). Further, the “low concentration still giving a good effect on transformation efficiency” value in test [1] (pretreatment medium) is “approximately 25 μM”. Further, the “optimal concentration in the medium” value in test [1] (pretreatment medium) was “approximately 200 μM”. Moreover, the PAT-positive lines in test [1] (strain A3460, about 1700 pre-treated callus fragments) is given as 5; in test [1] (setting [6]) it was 1. In test [1] (setting [6]), the frequency result is reported as “about 1%”. Further, in test [1] (setting [6]), the “shoot-regenerating lines on PPT containing media” value was found to be 2. In addition, the PAT-positive plant lines in test [1] (strain A3533) worked out at 30; in test [1] (strain A3637), 33; in test [1] (strain A3638) it was 37. For the same molecule, the average transformation frequencies entry in test [1] (strains A3638, A3533 and A3637, about 4000 pre-treated callus fragments each) was “about 1%”. For the same molecule, the “increase in transformation efficiency by pretreatment” value in test [1] (versus no pretreatment, co-cultivation with Agrobacterium strains) was “at least three times”.

As to `Oc1ccccc1O` [catechol, 1,2-dihydroxybenzene], in test [1] (setting [4]), the “Number of PAT-positive lines” value is on record as 1 and the Transformation frequency was 0.5%.

Consider `O=C(O)c1cc(O)c(O)c(O)c1` [gallic acid, 3,4,5-trihydroxybenzoic acid], for which, in test [1] (setting [4]), the “Number of PAT-positive lines” value stood at 3 and the Transformation frequency was 1.5%.

Turning to `O=C(O)c1ccc(O)cc1` [p-hydroxybenzoic acid, 4-hydroxybenzoic acid], in test [1] (setting [4]), the “Number of PAT-positive lines” value was 2 and the Transformation frequency turned out to be 1%.

On to `COc1cc(C=O)ccc1O` [vanillin, 3-methoxy-4-hydroxybenzaldehyde], for which, in test [1] (setting [4]), the “Number of PAT-positive lines” value is recorded as 4 and the Transformation frequency was found to be 2%.
